Data: US9586986B2, “Substituted 7-deazapurine ribonucleosides for therapeutic uses” (Institute of Organic Chemistry and Biochemistry ASCR, v.v.i., priority 2014, dated 2017)

System: CCRF-CEM cells
Test: BrU incorporation analysis (RNA synthesis)
Format: cell-based, human
Conditions: CCRF-CEM cells treated at IC50 for 24 hrs
Experimental: Cells were cultured and treated as for cell cycle analysis. Before harvesting, they were pulse-labelled with 1 mM 5-bromouridine (BrU) for 30 min. The cells were fixed in 1% buffered paraformaldehyde with 0.05% of NP-40, incubated in room temperature for 15 min and than in the fridge overnight. They were then washed in 1% glycin in PBS, washed in PBS and stained with primary anti-BrdU antibody crossreacting to BrU (Exbio) for 30 min at room temperature in the dark. Cells were than washed with PBS and stained with secondary anti-mouse-FITC antibody (Sigma). Following the staining the cells are washed with PBS and fixed with 1% PBS buffered paraformaldehyde with 0.05% of NP-40. The cells were then washed with PBS, incubated with propidium iodide (0.1 mg/mL) and RNAse A (0.5 mg/mL) for 1 h at room temperature in the dark, and finally analyzed by flow cytometry using a 488 nm single-beam laser (FACSCalibur, Becton Dickinson).
However, the major mechanism of action was inhibition of RNA synthesis (BrU incorporation). […] Cell cycle alterations (G1, S, G2/M) were not observed in treated cells under specified experimental conditions.

Compound | BrU+ (RNA synthesis), % of total cell populations [%]
COc1ncnc2c1c(-c1ccco1)cn2[C@@H]1O[C@H](CO)[C@@H](O)[C@H]1O [Compound 1a, 5-(Furan-2-yl)-4-methoxy-7-(β-D-ribofuranosyl)-7H-pyrrolo[2,3-d]pyrimidine] | 13.8
COc1ncnc2c1c(-c1ccoc1)cn2[C@@H]1O[C@H](CO)[C@@H](O)[C@H]1O [Compound 1b, 5-(Furan-3-yl)-4-methoxy-7-(β-D-ribofuranosyl)-7H-pyrrolo[2,3-d]pyrimidine] | 0.7
COc1ncnc2c1c(-c1cccs1)cn2[C@@H]1O[C@H](CO)[C@@H](O)[C@H]1O [Compound 1c, 4-Methoxy-7-(β-D-ribofuranosyl)-5-(thiophen-2-yl)-7H-pyrrolo[2,3-d]pyrimidine] | 0.1
COc1ncnc2c1c(-c1ccsc1)cn2[C@@H]1O[C@H](CO)[C@@H](O)[C@H]1O [Compound 1d, 4-Methoxy-7-(β-D-ribofuranosyl)-5-(thiophen-3-yl)-7H-pyrrolo[2,3-d]pyrimidine] | 0.5
COc1ncnc2c1c(I)cn2[C@@H]1O[C@H](CO)[C@@H](O)[C@H]1O [Compound 1h, 5-iodo-4-methoxy-7-(β-D-ribofuranosyl)-7H-pyrrolo[2,3-d]pyrimidine, reference compound] | 0.2
CSc1ncnc2c1c(-c1ccco1)cn2[C@@H]1O[C@H](CO)[C@@H](O)[C@H]1O [Compound 2a, 5-(Furan-2-yl)-4-methylsulfanyl-7-(β-D-ribofuranosyl)-7H-pyrrolo[2,3-d]pyrimidine] | 5
CNc1ncnc2c1c(-c1ccco1)cn2[C@@H]1O[C@H](CO)[C@@H](O)[C@H]1O [Compound 3a, 5-(Furan-2-yl)-4-methylamino-7-(β-D-ribofuranosyl)-7H-pyrrolo[2,3-d]pyrimidine] | 1.
CN(C)c1ncnc2c1c(-c1ccco1)cn2[C@@H]1O[C@H](CO)[C@@H](O)[C@H]1O [Compound 4a, 4-Dimethylamino-5-(furan-2-yl)-7-(β-D-ribofuranosyl)-7H-pyrrolo[2,3-d]pyrimidine] | 0.4
CN(C)c1ncnc2c1c(-c1ccsc1)cn2[C@@H]1O[C@H](CO)[C@@H](O)[C@H]1O [Compound 4d, 4-Dimethylamino-7-(β-D-ribofuranosyl)-5-(thiophen-3-yl)-7H-pyrrolo[2,3-d]pyrimidine] | 0.7
C#Cc1cn([C@@H]2O[C@H](CO)[C@@H](O)[C@H]2O)c2ncnc(N(C)C)c12 [Compound 4g, 4-Dimethylamino-5-ethynyl-7-(β-D-ribofuranosyl)-7H-pyrrolo[2,3-d]pyrimidine] | 8.6
CN(C)c1ncnc2c1c(I)cn2[C@@H]1O[C@H](CO)[C@@H](O)[C@H]1O [Compound 4h, 4-Dimethylamino-5-iodo-7-(β-D-ribofuranosyl)-7H-pyrrolo[2,3-d]pyrimidine] | 4.8
